# Patent US20250282771A1, “TETRAHYDROISOQUINOLINE HETEROBIFUNCTIONAL BCL-XL DEGRADERS” (Treeline Biosciences, Inc., priority 2022, published 2025)
# Target: T1, N-terminal HiBiT tagged BCL-XL (Homo sapiens, UniProt Q07817)
# T1 construct: expressed in transfected cells; host or cells: HT-1080 (ATCC CCL-121) cells stably transduced with lentivirus pLV-UBC-N-HiBiT-BCL-XL-PGK-puro
# Test: HiBiT based degradation assay
# Type: cell-based
# Conditions: HT1080 cells expressing N-terminal HiBiT tagged BCL-XL, BCL-XL level normalized with DMSO control
# Source text: Human BCL-XL protein coding open reading frame fused with N-terminal HiBiT coding sequence was synthesized from Integrated DNA Technologies (IDT). Next, N-HiBiT-BCL-XL sequence was cloned into pLV-UBC-PGK-Puro, a lentivirus plasmid purchased from Vectorbuilder, to generate pLV-UBC-N-HiBiT-BCL-XL-PGK-puro. Lentiviral particles were generated from Lenti-X™ 293T cells (Clontech) by co-transfection of pLV-UBC-N-HiBiT-BCL-XL-PGK-puro plasmids and lentiviral packaging plasmid mix (Cellecta). HT-1080 [HT1080](ATCC CCL-121) cells were infected with the lentivirus, and HT1080 cells stably integrated with the lentiviral vectors were established by incubation with […] puromycin (Thermofisher).
# HT1080 cells expressing N-terminal HiBiT tagged BCL-XL were dispensed into a 384-well plate pre-spotted with compounds at varying concentrations. Three thousand cells were seeded into each well in 40 μL of RPMI 1640 media. […] After incubation, luminescence was read on a PHERAstar FSX Plate Reader (BMG). BCL-XL degradation at each indicated concentration was normalized with the DMSO control. The BCL-XL degradation curves were plotted using a four-parameter logistic model. For compounds displaying hook effects, the curve fitting was performed using the bottom point of the hook curves (i.e., the point of Ymin) as the bottom plateau to calculate EC50.
# T1 sequence (Q07817 whole entry): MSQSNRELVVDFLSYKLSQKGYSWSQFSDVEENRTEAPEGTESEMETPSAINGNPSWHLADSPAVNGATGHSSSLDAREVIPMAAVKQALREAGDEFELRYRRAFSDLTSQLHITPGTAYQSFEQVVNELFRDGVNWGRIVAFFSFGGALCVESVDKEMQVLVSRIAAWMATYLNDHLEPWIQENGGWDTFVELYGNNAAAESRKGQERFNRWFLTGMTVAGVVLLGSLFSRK
Ymin (6 h),Ymin (24 h),SMILES
A (Ymin < 50%),,Cc1c(OCCCCCCCCCC(=O)N2CCN(c3cc4c(cc3F)C(=O)N(C3CCC(=O)NC3=O)C4=O)CC2)cccc1-c1ccc(N2CCc3cccc(C(=O)Nc4nc5ccccc5s4)c3C2)nc1C(=O)O (stereo not drawn) [Compound 102]
B (50% ≤ Ymin < 70%),C (Ymin ≥ 70%),"Cc1c(O[C@H]2CC[C@H](CCCN3CCN(c4cc5c(cc4F)C(=O)N(C4CCC(=O)NC4=O)C5=O)CC3)CC2)cccc1-c1ccc(N2CCc3cccc(C(=O)Nc4nc5ccccc5s4)c3C2)nc1C(=O)O (stereo partly drawn) [Compound 112a, 6-(8-(benzo[d]thiazol-2-ylcarbamoyl)-3,4-dihydroisoquinolin-2(1H)-yl)-3-(3-(((1s,4r)-4-(3-(4-(2-(2,6-dioxopiperidin-3-yl)-6-fluoro-1,3-dioxoisoindolin-5-yl)piperazin-1-yl)propyl)cyclohexyl)oxy)-2-methylphenyl)picolinic acid]"
,A (Ymin < 50%),"Cc1c(OCCC2CCN(CC3CCN(c4cc5c(cc4F)C(=O)N(C4CCC(=O)NC4=O)C5=O)CC3)CC2)cccc1-c1ccc(N2CCc3cccc(C(=O)Nc4nc5ccccc5s4)c3C2)nc1C(=O)O (stereo not drawn) [Compound 145, 6-[8-(1,3-benzothiazol-2-ylcarbamoyl)-3,4-dihydro-1H-isoquinolin-2-yl]-3-[3-[2-[1-[[1-[2-(2,6-dioxo-3-piperidyl)-6-fluoro-1,3-dioxo-isoindolin-5-yl]-4-piperidyl]methyl]-4-piperidyl]ethoxy]-2-methyl-phenyl]pyridine-2-carboxylic acid]"
,B (50% ≤ Ymin < 70%),"Cc1c(OCCCC2CCN([C@H](C)C(=O)N3CCN(c4cc5c(cc4F)C(=O)N(C4CCC(=O)NC4=O)C5=O)CC3)CC2)cccc1-c1ccc(N2CCc3cccc(C(=O)Nc4nc5ccccc5s4)c3C2)nc1C(=O)O (stereo partly drawn) [Compound 124b, 6-(8-(benzo[d]thiazol-2-ylcarbamoyl)-3,4-dihydroisoquinolin-2(1H)-yl)-3-(3-(3-(1-((2R)-1-(4-(2-(2,6-dioxopiperidin-3-yl)-6-fluoro-1,3-dioxoisoindolin-5-yl)piperazin-1-yl)-1-oxopropan-2-yl)piperidin-4-yl)propoxy)-2-methylphenyl)picolinic acid]"
,B (50% ≤ Ymin < 70%),"Cc1c(OCC2CC3(CCN(CCN4CCN(c5cc6c(cc5F)C(=O)N(C5CCC(=O)NC5=O)C6=O)CC4)CC3)C2)cccc1-c1ccc(N2CCc3cccc(C(=O)Nc4nc5ccccc5s4)c3C2)nc1C(=O)O (stereo not drawn) [Compound 132, 6-(8-(benzo[d]thiazol-2-ylcarbamoyl)-3,4-dihydroisoquinolin-2(1H)-yl)-3-(3-((7-(2-(4-(2-(2,6-dioxopiperidin-3-yl)-6-fluoro-1,3-dioxoisoindolin-5-yl)piperazin-1-yl)ethyl)-7-azaspiro[3.5]nonan-2-yl)methoxy)-2-methylphenyl)picolinic acid]"
,B (50% ≤ Ymin < 70%),"Cc1c(OCC(F)(F)CC2CCN(CC(=O)N3CCN(c4cc5c(cc4F)C(=O)N(C4CCC(=O)NC4=O)C5=O)CC3)CC2)cccc1-c1ccc(N2CCc3cccc(C(=O)Nc4nc5ccccc5s4)c3C2)nc1C(=O)O (stereo not drawn) [Compound 127, 6-(8-(benzo[d]thiazol-2-ylcarbamoyl)-3,4-dihydroisoquinolin-2(1H)-yl)-3-(3-(3-(1-(2-(4-(2-(2,6-dioxopiperidin-3-yl)-6-fluoro-1,3-dioxoisoindolin-5-yl)piperazin-1-yl)-2-oxoethyl)piperidin-4-yl)-2,2-difluoropropoxy)-2-methylphenyl)picolinic acid]"
,C (Ymin ≥ 70%),Cc1c(OCCC[C@H]2CCN(CC(=O)N3CCN(c4cc5c(cc4F)C(=O)N(C4CCC(=O)NC4=O)C5=O)CC3)CC2(F)F)cccc1-c1ccc(N2CCc3cccc(C(=O)Nc4nc5ccccc5s4)c3C2)nc1C(=O)O (stereo partly drawn) [Compound 120b]
,B (50% ≤ Ymin < 70%),"Cc1c(O[C@H](C)CCC2CCN(CC(=O)N3CCN(c4cc5c(cc4F)C(=O)N(C4CCC(=O)NC4=O)C5=O)CC3)CC2)cccc1-c1ccc(N2CCc3cccc(C(=O)Nc4nc5ccccc5s4)c3C2)nc1C(=O)O (stereo partly drawn) [Compound 128b, 6-[8-(1,3-benzothiazol-2-ylcarbamoyl)-3,4-dihydro-1H-isoquinolin-2-yl]-3-[3-[(1R)-3-[1-[2-[4-[2-(2,6-dioxo-3-piperidyl)-6-fluoro-1,3-dioxo-isoindolin-5-yl]piperazin-1-yl]-2-oxo-ethyl]-4-piperidyl]-1-methyl-propoxy]-2-methyl-phenyl]pyridine-2-carboxylic acid]"
B (50% ≤ Ymin < 70%),,"Cc1c(OCCC2CCN(CC(=O)N3CCN(c4cc5c(cc4F)C(=O)N(C4CCC(=O)NC4=O)C5=O)CC3)CC2)cccc1-c1ccc(N2CCc3cccc(C(=O)Nc4nc5ccccc5s4)c3C2)nc1C(=O)O (stereo not drawn) [Compound 106, 6-[8-(1,3-Benzothiazol-2-ylcarbamoyl)-3,4-dihydro-1H-isoquinolin-2-yl]-3-[3-[2-[1-[2-[4-[2-(2,6-dioxo-3-piperidyl)-6-fluoro-1,3-dioxo-isoindolin-5-yl]piperazin-1-yl]-2-oxo-ethyl]-4-piperidyl]ethoxy]-2-methyl-phenyl]pyridine-2-carboxylic acid]"
,B (50% ≤ Ymin < 70%),"Cc1c(OCCC(F)(F)C2CCN(CC(=O)N3CCN(c4cc5c(cc4F)C(=O)N(C4CCC(=O)NC4=O)C5=O)CC3)CC2)cccc1-c1ccc(N2CCc3cccc(C(=O)Nc4nc5ccccc5s4)c3C2)nc1C(=O)O (stereo not drawn) [Compound 126, 6-(8-(benzo[d]thiazol-2-ylcarbamoyl)-3,4-dihydroisoquinolin-2(1H)-yl)-3-(3-(3-(1-(2-(4-(2-(2,6-dioxopiperidin-3-yl)-6-fluoro-1,3-dioxoisoindolin-5-yl)piperazin-1-yl)-2-oxoethyl)piperidin-4-yl)-3,3-difluoropropoxy)-2-methylphenyl)picolinic acid]"
B (50% ≤ Ymin < 70%),B (50% ≤ Ymin < 70%),"Cc1c(Oc2ccc(CCCN3CCN(c4cc5c(cc4F)C(=O)N(C4CCC(=O)NC4=O)C5=O)CC3)cc2)cccc1-c1ccc(N2CCc3cccc(C(=O)Nc4nc5ccccc5s4)c3C2)nc1C(=O)O (stereo not drawn) [Compound 110, 6-[8-(1,3-Benzothiazol-2-ylcarbamoyl)-3,4-dihydro-1H-isoquinolin-2-yl]-3-[3-[4-[3-[4-[2-(2,6-dioxo-3-piperidyl)-6-fluoro-1,3-dioxo-isoindolin-5-yl]piperazin-1-yl]propyl]phenoxy]-2-methyl-phenyl]pyridine-2-carboxylic acid]"
B (50% ≤ Ymin < 70%),,Cc1c(OCCCCCCCC(=O)N2CCN(c3cc4c(cc3F)C(=O)N(C3CCC(=O)NC3=O)C4=O)CC2)cccc1-c1ccc(N2CCc3cccc(C(=O)Nc4nc5ccccc5s4)c3C2)nc1C(=O)O (stereo not drawn) [Compound 114]
B (50% ≤ Ymin < 70%),,O=C1CCC(N2C(=O)c3cc(F)c(N4CCN(CCCCCCCOc5cccc(-c6ccc(N7CCc8cccc(C(=O)Nc9nc%10ccccc%10s9)c8C7)nc6C(=O)O)c5)CC4)cc3C2=O)C(=O)N1 (stereo not drawn) [Compound 103]
C (Ymin ≥ 70%),B (50% ≤ Ymin < 70%),Cc1c(OCCCCCCN2CCN(c3cc4c(cc3F)C(=O)N(C3CCC(=O)NC3=O)C4=O)CC2)cccc1-c1ccc(N2CCc3cccc(C(=O)Nc4nc5ccccc5s4)c3C2)nc1C(=O)O (stereo not drawn) [Compound 115]
C (Ymin ≥ 70%),B (50% ≤ Ymin < 70%),"Cc1c(O[C@@H](C)CCC2CCN(CC(=O)N3CCN(c4cc5c(cc4F)C(=O)N(C4CCC(=O)NC4=O)C5=O)CC3)CC2)cccc1-c1ccc(N2CCc3cccc(C(=O)Nc4nc5ccccc5s4)c3C2)nc1C(=O)O (stereo partly drawn) [Compound 128a, 6-(8-(benzo[d]thiazol-2-ylcarbamoyl)-3,4-dihydroisoquinolin-2(1H)-yl)-3-(3-(((2S)-4-(1-(2-(4-(2-(2,6-dioxopiperidin-3-yl)-6-fluoro-1,3-dioxoisoindolin-5-yl)piperazin-1-yl)-2-oxoethyl)piperidin-4-yl)butan-2-yl)oxy)-2-methylphenyl)picolinic acid]"

SMILES,Ymin (6 h),Ymin (24 h)
"Cc1c(OCCCC[C@H]2CCCN(CC(=O)N3CCN(c4cc5c(cc4F)C(=O)N(C4CCC(=O)NC4=O)C5=O)CC3)C2)cccc1-c1ccc(N2CCc3cccc(C(=O)Nc4nc5ccccc5s4)c3C2)nc1C(=O)O (stereo partly drawn) [Compound 135b, 6-[8-(1,3-benzothiazol-2-ylcarbamoyl)-3,4-dihydro-1H-isoquinolin-2-yl]-3-[3-[4-[(3S)-1-[2-[4-[2-(2,6-dioxo-3-piperidyl)-6-fluoro-1,3-dioxo-isoindolin-5-yl]piperazin-1-yl]-2-oxo-ethyl]-3-piperidyl]butoxy]-2-methyl-phenyl]pyridine-2-carboxylic acid]",,B (50% ≤ Ymin < 70%)
"Cc1c(OCCCC[C@@H]2CCCN(CC(=O)N3CCN(c4cc5c(cc4F)C(=O)N(C4CCC(=O)NC4=O)C5=O)CC3)C2)cccc1-c1ccc(N2CCc3cccc(C(=O)Nc4nc5ccccc5s4)c3C2)nc1C(=O)O (stereo partly drawn) [Compound 135a, 6-[8-(1,3-benzothiazol-2-ylcarbamoyl)-3,4-dihydro-1H-isoquinolin-2-yl]-3-[3-[4-[(3R)-1-[2-[4-[2-(2,6-dioxo-3-piperidyl)-6-fluoro-1,3-dioxo-isoindolin-5-yl]piperazin-1-yl]-2-oxo-ethyl]-3-piperidyl]butoxy]-2-methyl-phenyl]pyridine-2-carboxylic acid]",,B (50% ≤ Ymin < 70%)
